Assay: xn = mol fraction of the nth substance listed

OCC(O)CO + O
Settings	viscosity [mPa·s]
293.15 K, 101.33 kPa, x1 = 0.021	1.307
293.15 K, 101.33 kPa, x1 = 0.047	1.952
293.15 K, 101.33 kPa, x1 = 0.077	2.817
293.15 K, 101.33 kPa, x1 = 0.12	4.618
293.15 K, 101.33 kPa, x1 = 0.16	7.693
298.15 K, 101 kPa, x1 = 0.0866	2.708
298.15 K, 101 kPa, x1 = 0.1636	7.353
298.15 K, 101 kPa, x1 = 0.2269	13.77
298.15 K, 101 kPa, x1 = 0.3134	27.75
298.15 K, 101 kPa, x1 = 0.439	59.74
298.15 K, 101 kPa, x1 = 0.5124	88.48
298.15 K, 101 kPa, x1 = 0.6378	163.1
298.15 K, 101 kPa, x1 = 0.7036	220.8
298.15 K, 101 kPa, x1 = 0.7684	297.3
298.15 K, 101 kPa, x1 = 0.8478	429.9
298.15 K, 101 kPa, x1 = 0.9176	604.8
298.15 K, 101 kPa, x1 = 0.9561	734.9
300.65 K, 101 kPa, x1 = 0.2636	10.84
300.65 K, 101 kPa, x1 = 0.2837	12.68
300.65 K, 101 kPa, x1 = 0.3153	16.23
300.65 K, 101 kPa, x1 = 0.3391	19.56
300.65 K, 101 kPa, x1 = 0.365	23.64
300.65 K, 101 kPa, x1 = 0.3785	26.06
300.65 K, 101 kPa, x1 = 0.4055	31.58
300.65 K, 101 kPa, x1 = 0.4294	37.49
300.65 K, 101 kPa, x1 = 0.485	54.01
300.65 K, 101 kPa, x1 = 0.5117	64.08
300.65 K, 101 kPa, x1 = 0.5472	79.81
300.65 K, 101 kPa, x1 = 0.5575	85.2
300.65 K, 101 kPa, x1 = 0.5867	102.7
300.65 K, 101 kPa, x1 = 0.6349	135.1
300.65 K, 101 kPa, x1 = 0.659	154.4
300.65 K, 101 kPa, x1 = 0.6978	191.6
300.65 K, 101 kPa, x1 = 0.7166	212.1
300.65 K, 101 kPa, x1 = 0.7442	245.6
300.65 K, 101 kPa, x1 = 0.7646	266.3
300.65 K, 101 kPa, x1 = 0.7947	309.7
300.65 K, 101 kPa, x1 = 0.8114	336.6
300.65 K, 101 kPa, x1 = 0.8274	363.6
300.65 K, 101 kPa, x1 = 0.8428	389.9
300.65 K, 101 kPa, x1 = 0.859	420.7
300.65 K, 101 kPa, x1 = 0.9082	519.8
300.65 K, 101 kPa, x1 = 0.9434	607.3
300.65 K, 101 kPa, x2 = 0.0171	715.5
303.15 K, 101 kPa, x1 = 0.00777	0.877
303.15 K, 101 kPa, x1 = 0.0152	0.956
303.15 K, 101 kPa, x1 = 0.02262	1.04
303.15 K, 101 kPa, x1 = 0.03118	1.147
303.15 K, 101 kPa, x1 = 0.03958	1.259
303.15 K, 101 kPa, x1 = 0.04604	1.351
303.15 K, 101 kPa, x1 = 0.05683	1.52
303.15 K, 101 kPa, x1 = 0.07063	1.751
303.15 K, 101 kPa, x1 = 0.07885	1.907
303.15 K, 101 kPa, x1 = 0.08828	2.098
303.15 K, 101 kPa, x1 = 0.1003	2.364
303.15 K, 101 kPa, x1 = 0.1112	2.625
303.15 K, 101 kPa, x1 = 0.1223	2.919
303.15 K, 101 kPa, x1 = 0.1369	3.347
303.15 K, 101 kPa, x1 = 0.154	3.909
303.15 K, 101 kPa, x1 = 0.171	4.552
303.15 K, 101 kPa, x1 = 0.1874	5.236
303.15 K, 101 kPa, x1 = 0.1967	5.679
303.15 K, 101 kPa, x1 = 0.2067	6.187
303.15 K, 101 kPa, x1 = 0.2178	6.77
303.15 K, 101 kPa, x1 = 0.225	7.222
303.15 K, 101 kPa, x1 = 0.2378	7.986
303.15 K, 101 kPa, x1 = 0.2459	8.548
303.15 K, 101 kPa, x1 = 0.2622	9.75
303.15 K, 101 kPa, x1 = 0.2636	9.8
303.15 K, 101 kPa, x1 = 0.2837	11.4
303.15 K, 101 kPa, x1 = 0.3153	14.53
303.15 K, 101 kPa, x1 = 0.3391	17.41
303.15 K, 101 kPa, x1 = 0.365	20.97
303.15 K, 101 kPa, x1 = 0.3785	23.02
303.15 K, 101 kPa, x1 = 0.4055	27.81
303.15 K, 101 kPa, x1 = 0.4294	32.86
303.15 K, 101 kPa, x1 = 0.485	46.9
303.15 K, 101 kPa, x1 = 0.5117	55.29
303.15 K, 101 kPa, x1 = 0.5472	68.64
303.15 K, 101 kPa, x1 = 0.5575	73.12
303.15 K, 101 kPa, x1 = 0.5867	87.65
303.15 K, 101 kPa, x1 = 0.6349	114.5
303.15 K, 101 kPa, x1 = 0.659	130.4
303.15 K, 101 kPa, x1 = 0.6978	161
303.15 K, 101 kPa, x1 = 0.7166	177.9
303.15 K, 101.33 kPa, x1 = 0.021	1.057
303.15 K, 101.33 kPa, x1 = 0.047	1.46
303.15 K, 101.33 kPa, x1 = 0.077	2.006
303.15 K, 101.33 kPa, x1 = 0.12	3.309
303.15 K, 101.33 kPa, x1 = 0.16	5.252
313.15 K, 101.33 kPa, x1 = 0.021	0.843
313.15 K, 101.33 kPa, x1 = 0.047	1.086
313.15 K, 101.33 kPa, x1 = 0.077	1.465
313.15 K, 101.33 kPa, x1 = 0.12	2.226
313.15 K, 101.33 kPa, x1 = 0.16	3.499
323.15 K, 101.33 kPa, x1 = 0.021	0.68
323.15 K, 101.33 kPa, x1 = 0.047	0.876
323.15 K, 101.33 kPa, x1 = 0.077	1.095
323.15 K, 101.33 kPa, x1 = 0.12	1.666
323.15 K, 101.33 kPa, x1 = 0.16	2.587

CC(=O)[C@@]12O[C@@H]1C[C@H]1[C@@H]3CCC4=CC(=O)CC[C@]4(C)[C@H]3[C@H](O)C[C@@]12C + ClC(Cl)Cl
viscosity [mPa·s]
Settings	295.7 K	299.65 K	303.75 K	307.65 K	312.15 K	317.15 K	321.15 K
100 kPa, x1 = 0.00321	0.57	0.536	0.52	0.498	0.491	0.48	0.454
100 kPa, x1 = 0.004735	0.582	0.553	0.53	0.506	0.5	0.485	0.463
100 kPa, x1 = 0.006205	0.596	0.564	0.544	0.515	0.505	0.492	0.474
100 kPa, x1 = 0.007786	0.612	0.577	0.552	0.524	0.515	0.499	0.48
100 kPa, x1 = 0.009221	0.629	0.593	0.566	0.532	0.522	0.506	0.489
100 kPa, x1 = 0.01088	0.646	0.609	0.578	0.544	0.529	0.516	0.501
100 kPa, x1 = 0.01243	0.662	0.617	0.585	0.554	0.54	0.523	0.513
101 kPa, x1 = 0.003181	0.57	0.536	0.52	0.498	0.491	0.48	0.454
101 kPa, x1 = 0.00467	0.582	0.553	0.53	0.506	0.5	0.485	0.463
101 kPa, x1 = 0.006096	0.596	0.564	0.544	0.515	0.505	0.492	0.474
101 kPa, x1 = 0.007615	0.612	0.577	0.552	0.524	0.515	0.499	0.48
101 kPa, x1 = 0.008981	0.629	0.593	0.566	0.532	0.522	0.506	0.489
101 kPa, x1 = 0.01055	0.646	0.609	0.578	0.544	0.529	0.516	0.501
101 kPa, x1 = 0.01199	0.662	0.617	0.585	0.554	0.54	0.523	0.513

CCOc1ccccc1 + CCNc1ccccc1
viscosity [mPa·s], 101 kPa
Settings	293.15 K	298.15 K	303.15 K	308.15 K	313.15 K	318.15 K	323.15 K
x2 = 0.0508	1.253	1.161	1.063	0.999	0.933	0.868	0.808
x2 = 0.1098	1.291	1.19	1.088	1.021	0.953	0.884	0.823
x2 = 0.1509	1.317	1.211	1.105	1.036	0.965	0.896	0.832
x2 = 0.2097	1.355	1.241	1.131	1.057	0.983	0.91	0.845
x2 = 0.2533	1.386	1.265	1.151	1.072	0.996	0.921	0.855
x2 = 0.3046	1.423	1.295	1.176	1.093	1.012	0.935	0.866
x2 = 0.3501	1.459	1.323	1.2	1.112	1.028	0.948	0.878
x2 = 0.4081	1.51	1.364	1.234	1.141	1.052	0.967	0.894
x2 = 0.4533	1.552	1.397	1.262	1.164	1.071	0.984	0.908
x2 = 0.5003	1.599	1.435	1.295	1.191	1.094	1.003	0.924
x2 = 0.5519	1.655	1.479	1.333	1.223	1.122	1.027	0.944
x2 = 0.6068	1.719	1.531	1.377	1.26	1.153	1.054	0.967
x2 = 0.6496	1.772	1.574	1.414	1.291	1.18	1.077	0.986
x2 = 0.7065	1.846	1.633	1.464	1.333	1.215	1.107	1.012
x2 = 0.7497	1.906	1.682	1.506	1.367	1.244	1.131	1.033
x2 = 0.7998	1.978	1.739	1.554	1.407	1.278	1.16	1.058
x2 = 0.8505	2.055	1.798	1.604	1.447	1.311	1.188	1.082
x2 = 0.9019	2.133	1.859	1.653	1.487	1.344	1.214	1.105
x2 = 0.9502	2.205	1.914	1.699	1.525	1.374	1.239	1.125

Source: the CheMixHub viscosity set
